Test results published in patent US20120088803A1, “CONTROL AGENT FOR SOFT ROT AND CONTROL METHOD FOR THE SAME” (Ishihara Sangyo Kaisha, Ltd, priority 2009, published 2012).
Several values for one entry are separate records, joined by “and”; a condition that tells them apart may be missing. Equal values may be shown once.

How the values were obtained:
[1] = system: Chinese cabbage soft rot; assay: Test for disease control of Chinese cabbage, field (Example 1 / Comparative Example 1); type: in vivo, Erwinia carotovora; set-up: key to Disease incidence rate: % of examined plants that are diseased; key to Disease control value: (1 − severity treated/severity untreated) × 100; key to Disease severity: Σ(plants per class × index 0–4)/(plants examined × 4) × 100; conditions: for Disease incidence rate / Disease severity / Disease control value: 63 days; for Disease control value: vs untreated plot; for Control effect on Chinese cabbage soft rot (in words): Table 1 test, moderate incidence conditions, fluazinam 250 g ai/10 a on soil, streptomycin 1/1000 foliage spraying
Description: Preparation was performed using 500 g/L of 3-chloro-N-(3-chloro-5-trifluoromethyl-2-pyridyl)-alpha,alpha,alpha-trifluoro-2,6-dinit ro-p-toluidine (fluazinam (common name), Frowncide SC (trade name), manufactured by Ishihara Sangyo Kaisha, Ltd.) such that the amount of the active ingredient was 250 g ai/10 a (500 mL product/10 a), and the amount of dilution water was 150 L/10 a.
The spray solution prepared in the above was sprayed onto cultivation soil in a field such that the spraying amount was 0.25 g/m^2 (150 L/10 a), and thereafter, a mulch-sheet for agricultural use was spreaded on the soil. After planting holes for settlement (diameter: about 5 cm) were made, seedlings of Chinese cabbage (cultivar: Musou) grown for 4 weeks in a cell tray (128 holes/nursery box) were planted such that 30 seedlings were planted in one test plot having an area of 6 m^2 with three replications.
(§1) Preparation was performed by diluting streptomycin (Mycin 20 wettable powder (trade name), manufactured by Hokko Chemical Industry Co., Ltd.) with water to 1/1000.
(§2) In a field covered with a mulch-sheet for agricultural use, seedlings of Chinese cabbage (cultivar: Musou) grown in a cell tray were planted, in the same manner as in Example 1, and foliage application was performed by spraying the spray solution of streptomycin prepared in (1) (spraying amount per application: 200 L/10 a) twice (39 days and 47 days after the planting of the seedlings).
The degree of disease incidence was examined for all the plants in each test plot 63 days after the start of the test, and the disease incidence rate, the disease severity, and the disease control value were calculated according to the following equations, and the test results are shown in Table 1.
(§3) (Disease incidence rate)=[(number of diseased plants)/(number of plants examined)]*100
(§4) (Disease severity)={S [(number of diseased plants in each class into which the plants are classified according to the degree of disease)*(disease index)]/[(number of plants examined)*4]}*100
(§5) (Disease control value)={1-[(Disease severity in treated plot)/(Disease severity in untreated plot)]}*100
(§6) Incidentally, the evaluation criteria for the disease index are as follows. • (Disease index) • 0: No lesion • 1: Lesions appear only in part of outer leaves (shipment can be made). • 2: Lesions appear in outer leaves and part of head leaves (the damaged part is removed and shipment as a small size plant can be made, rated Grade B). • 3: Lesions appear in most head leaves or more (shipment cannot be made). • 4: Lesions appear in the entire plant and the plant dies.

[2] = system: Chinese cabbage soft rot; assay: Test for disease control of Chinese cabbage, field (Example 4 / Comparative example 3); type: in vivo, Erwinia carotovora; set-up: key to Disease incidence rate: % of examined plants diseased; key to Disease control value: (1 − treated/untreated severity)×100; 100 = full control; key to Disease severity: severity index 0–100 from disease classes 0–4 (sum/(plants×4)×100); conditions: for Disease incidence rate / Disease severity / Disease control value: 64 days; for Disease control value: vs untreated plot
Source text: as §3, §4, §5, §6
Preparation was performed using 500 g/L of 3-chloro-N-(3-chloro-5-trifluoromethyl-2-pyridyl)-alpha,alpha,alpha-trifluoro-2,6-dinit ro-p-toluidine (fluazinam, Frowncide SC (trade name), manufactured by Ishihara Sangyo Kaisha, Ltd.) such that the amount of the active ingredient was 62.5 g ai/10 a (125 mL product/10 a), 125 g ai/10 a (250 mL product/10 a), and 250 g ai/10 a (500 mL product/10 a), and each amount of dilution water was 150 L/10 a.
A mulch-sheet for agricultural use was spreaded on soil, and planting holes for settlement (diameter: about 5 cm) were made, and then, the spray solution prepared in the above was sprayed onto the planting holes such that the amount of treated active ingredient was 0.0625 g/m^2 (150 L/10 a) in the case of the spray solution containing the active ingredient at 62.5 g ai/10 a, 0.125 g/m^2 (150 L/10 a) in the case of the spray solution containing the active ingredient at 125 g ai/10 a, and 0.25 g/m^2 (150 L/10 a) in the case of the spray solution containing the active ingredient at 250 g ai/10 a, followed by air-drying. Then, seedlings of Chinese cabbage (cultivar: Harebutai 65) grown for 4 weeks in a cell tray (128 holes/nursery box) were planted such that 19 seedlings were planted in one test plot having an area of 2.4 m^2 with two replications.
as §1
as §2, with “Harebutai 65)” for “Musou)”, “4,” for “1,”, “performed with a sprayer” for “performed”, “300” for “200”, “(27” for “(39”, “48” for “47”
The degree of disease incidence was examined for all the plants in each test plot 64 days after the start of the test, and the disease severity and the disease control value were evaluated. Incidentally, the disease severity and the disease control value were obtained in the same manner as described above.

[3] = system: Erwinia carotovora (potato Erwinia carotovora); assay: Test for growth inhibition of potato Erwinia carotovora (PSA medium plate); type: cell-based; conditions: for Growing state of Erwinia carotovora (formed colonies): PSA medium, 25 degrees C., 4 days, two plates per cell
Description: Reference test example: Test for growth inhibition of potato Erwinia carotovora
A test for growth inhibition of Erwinia carotovora in the case of direct application of the control agent to Erwinia carotovora was performed. To previously melted PSA medium (55 degrees C.), a predetermined amount of a pesticide 3-chloro-N-(3-chloro-5-trifluoromethyl-2-pyridyl)-alpha,alpha,alpha-trifluoro-2,6-dinit ro-p-toluidine (fluazinam, Frowncide SC (trade name), manufactured by Ishihara Sangyo Kaisha, Ltd.), ethaboxam wettable powder (Ethaboxam, Gardian (trade name), manufactured by LG Chemical), or streptomycin (Mycin wettable powder (trade name), manufactured by Hokko Chemical Industry Co., Ltd.) and a suspension of Erwinia carotovora (potato Erwinia carotovora) were added and the resulting mixture was stirred well, and then, poured in a plate. Then, the plate was cultured at 25 degrees C. for 4 days, and the growing state of Erwinia carotovora was examined. Thereafter, the formed colonies were examined according to the following three criteria. • +: Equal to the colonies of the untreated group • Plus or minus: Apparently less than the colonies of the untreated group • −: Almost no colonies

[4] = 250 g ai/10 a, 150 L/10a onto cultivation soil, Musou, Average of replications
[5] = 62.5 g ai/10 a, 150 L/10 a onto planting holes, Harebutai 65, Average
[6] = 125 g ai/10 a, 150 L/10 a onto planting holes, Harebutai 65, Average
[7] = 250 g ai/10 a, 150 L/10 a onto planting holes, Harebutai 65, Average
[8] = 250 g ai/10 a, 150 L/10 a onto planting holes, Harebutai 65, single replications I-II
[9] = 1/1000 dilution, foliage application twice, Musou, Average of replications
[10] = 1/1000 dilution, foliage application twice, Harebutai 65, Average

`O=[N+]([O-])c1cc(C(F)(F)F)c(Cl)c([N+](=O)[O-])c1Nc1ncc(C(F)(F)F)cc1Cl` [Fluazinam, 3-chloro-N-(3-chloro-5-trifluoromethyl-2-pyridyl)-alpha,alpha,alpha-trifluoro-2,6-dinit ro-p-toluidine] was tested, and the Disease incidence rate [1, 4] was 13.3, the Disease severity [1, 4] was 6.4 and the Disease severity ([1]; 250 g ai/10 a, 150 L/10a onto cultivation soil, Musou, single replications I-III) was 5.0 and 8.3 and 5.8. For the same molecule, the Disease control value ([1]; 250 g ai/10 a, 150 L/10a onto cultivation soil, Musou) was 81.7, the Disease incidence rate ([1]; 250 g ai/10 a, 150 L/10a sprayed onto cultivation soil before mulch-sheet, cultivar Musou, single replications I-III) was 16.7 and 13.3 and 10.0 and the “Control effect on Chinese cabbage soft rot (in words)” value [1] was “a control effect on Chinese cabbage soft rot was observed”. The Disease incidence rate [2, 5] was 44.7, the Disease severity [2, 5] was 13.8 and the Disease severity ([2]; 62.5 g ai/10 a, 150 L/10 a onto planting holes, Harebutai 65, single replications I-II) was 9.2 and 18.4. For the same molecule, the Disease control value ([2]; 62.5 g ai/10 a, 150 L/10 a onto planting holes, Harebutai 65) was 56.3, the Disease incidence rate ([2]; 62.5 g ai/10 a, 150 L/10 a onto planting holes, cultivar Harebutai 65, single replications I-II) was 36.8 and 52.6 and the Disease incidence rate [2, 6] was 36.1. The Disease severity [2, 6] was 10.5, the Disease control value ([2]; 125 g ai/10 a, 150 L/10 a onto planting holes, Harebutai 65) was 66.8 and the Disease incidence rate [2, 7] was 31.2. For the same molecule, the Disease severity [2, 7] was 8.5, the Disease incidence rate [2, 8] was 23.5 and 38.9 and the Disease severity [2, 8] was 5.9 and 11.1. For the same molecule, the Disease control value ([2]; 250 g ai/10 a, 150 L/10 a onto planting holes, Harebutai 65) was 73.1, the “Control effect on Chinese cabbage soft rot compared with foliage application of streptomycin (in words)” value ([2]; Table 4 test, moderate incidence conditions, even at 62.5 g ai/10 a or 125 g ai/10 a) was “a higher control effect” and the “Growing state of Erwinia carotovora (formed colonies)” value (shortened to “Growing state of Erwinia carotovora”) ([3]; Active ingredient concentration 100 ppm) was “+, +”. For the same molecule, the “Growing state of Erwinia carotovora” value ([3]; Active ingredient concentration 500 ppm) was “+, +”, the “Growing state of Erwinia carotovora” value ([3]; Active ingredient concentration 1000 ppm) was “±, ±” and the “Growth inhibition of Erwinia carotovora (in words)” value ([3]; active ingredient concentration of 1000 ppm, direct application) was “did not inhibit the growth”.
With `[H]/N=C(/N)N[C@H]1[C@H](O)[C@@H](O)[C@H](O[C@@H]2O[C@@H](C)[C@](O)(C=O)[C@H]2O[C@@H]2O[C@@H](CO)[C@H](O)[C@@H](O)[C@@H]2NC)[C@@H](N/C(N)=N\[H])[C@@H]1O` [Streptomycin, streptomycin] the Disease incidence rate [1, 9] was 60.0, the Disease severity [1, 9] was 37.8 and the Disease control value ([1]; 1/1000 dilution, foliage application twice, Musou) was 0. For the same molecule, the “Control effect on Chinese cabbage soft rot (in words)” value [1] was “not observed at all”, the Disease incidence rate ([2]; 1/1000 dilution, foliage application 300 L/10 a twice (27 and 48 days), Harebutai 65, single replications I-II) was 44.4 and 63.2 and the Disease incidence rate [2, 10] was 53.8. For the same molecule, the Disease severity [2, 10] was 14.9, the Disease severity ([2]; 1/1000 dilution, foliage application twice, Harebutai 65, single replications I-II) was 13.9 and 15.8 and the Disease control value ([2]; 1/1000 dilution, foliage application twice, Harebutai 65) was 52.8. For the same molecule, the “Growing state of Erwinia carotovora” value ([3]; Active ingredient concentration 1 ppm) was “−, −” and the “Growing state of Erwinia carotovora” value ([3]; Active ingredient concentration 10 ppm) was “−, −”.
